# The source made the active and inactive calls. How the calls were made is not given here.
# Test system: CCRIS mutagenicity, Ames/micronucleus/aberration tests
# Test: CCRIS mutagenicity studies
# [1] = Test System: AMES SALMONELLA TYPHIMURIUM, Strain/Indicator: TA98, Metabolic Activation: HAMSTER, LIVER, S-9, AROCLOR 1254 (10%), Method: PREINCUBATION
# [2] = Test System: AMES SALMONELLA TYPHIMURIUM, Strain/Indicator: TA98, Metabolic Activation: NONE, Method: PREINCUBATION
# [3] = Test System: AMES SALMONELLA TYPHIMURIUM, Strain/Indicator: TA98, Metabolic Activation: RAT, LIVER, S-9, AROCLOR 1254 (10%), Method: PREINCUBATION
# [4] = Test System: AMES SALMONELLA TYPHIMURIUM, Strain/Indicator: TA100, Metabolic Activation: HAMSTER, LIVER, S-9, AROCLOR 1254 (10%), Method: PREINCUBATION
# [5] = Test System: AMES SALMONELLA TYPHIMURIUM, Strain/Indicator: TA100, Metabolic Activation: NONE, Method: PREINCUBATION
# [6] = Test System: AMES SALMONELLA TYPHIMURIUM, Strain/Indicator: TA100, Metabolic Activation: RAT, LIVER, S-9, AROCLOR 1254 (10%), Method: PREINCUBATION
# [7] = Test System: AMES SALMONELLA TYPHIMURIUM, Strain/Indicator: TA1535, Metabolic Activation: HAMSTER, LIVER, S-9, AROCLOR 1254 (10%), Method: PREINCUBATION
# [8] = Test System: AMES SALMONELLA TYPHIMURIUM, Strain/Indicator: TA1535, Metabolic Activation: NONE, Method: PREINCUBATION
# [9] = Test System: AMES SALMONELLA TYPHIMURIUM, Strain/Indicator: TA1535, Metabolic Activation: RAT, LIVER, S-9, AROCLOR 1254 (10%), Method: PREINCUBATION
# [10] = Test System: AMES SALMONELLA TYPHIMURIUM, Strain/Indicator: TA1537, Metabolic Activation: NONE, Method: PREINCUBATION
# [11] = Test System: AMES SALMONELLA TYPHIMURIUM, Strain/Indicator: TA98, Metabolic Activation: NONE, Method: STANDARD PLATE
# [12] = Test System: AMES SALMONELLA TYPHIMURIUM, Strain/Indicator: TA100, Metabolic Activation: NONE, Method: STANDARD PLATE
# [13] = Test System: AMES SALMONELLA TYPHIMURIUM, Strain/Indicator: TA98, Metabolic Activation: RAT, LIVER, S-9, AROCLOR 1254, Method: STANDARD PLATE
# [14] = Test System: AMES SALMONELLA TYPHIMURIUM, Strain/Indicator: TA100, Metabolic Activation: RAT, LIVER, S-9, AROCLOR 1254, Method: STANDARD PLATE
structure (smiles),measurement,setting,value
Oc1ccc(Nc2ccc3ccccc3c2)cc1,mutagenic call,"Test System: AMES SALMONELLA TYPHIMURIUM, Strain/Indicator: TA97, Metabolic Activation: HAMSTER, LIVER, S-9, AROCLOR 1254 (10%), Method: PREINCUBATION",inactive; negative
same,mutagenic call,"Test System: AMES SALMONELLA TYPHIMURIUM, Strain/Indicator: TA97, Metabolic Activation: HAMSTER, LIVER, S-9, AROCLOR 1254 (30%), Method: PREINCUBATION",inactive; negative
same,mutagenic call,"Test System: AMES SALMONELLA TYPHIMURIUM, Strain/Indicator: TA97, Metabolic Activation: NONE, Method: PREINCUBATION",inactive; negative
same,mutagenic call,"Test System: AMES SALMONELLA TYPHIMURIUM, Strain/Indicator: TA97, Metabolic Activation: RAT, LIVER, S-9, AROCLOR 1254 (10%), Method: PREINCUBATION",inactive; negative
same,mutagenic call,"Test System: AMES SALMONELLA TYPHIMURIUM, Strain/Indicator: TA97, Metabolic Activation: RAT, LIVER, S-9, AROCLOR 1254 (30%), Method: PREINCUBATION",inactive; negative
same,mutagenic call,[1],inactive; negative
same,mutagenic call,"Test System: AMES SALMONELLA TYPHIMURIUM, Strain/Indicator: TA98, Metabolic Activation: HAMSTER, LIVER, S-9, AROCLOR 1254 (30%), Method: PREINCUBATION",inactive; negative
same,mutagenic call,[2],inactive; negative
same,mutagenic call,[3],inactive; negative
same,mutagenic call,"Test System: AMES SALMONELLA TYPHIMURIUM, Strain/Indicator: TA98, Metabolic Activation: RAT, LIVER, S-9, AROCLOR 1254 (30%), Method: PREINCUBATION",inactive; negative
same,mutagenic call,[4],inactive; negative
same,mutagenic call,"Test System: AMES SALMONELLA TYPHIMURIUM, Strain/Indicator: TA100, Metabolic Activation: HAMSTER, LIVER, S-9, AROCLOR 1254 (30%), Method: PREINCUBATION",inactive; negative
same,mutagenic call,[5],inactive; negative
same,mutagenic call,[6],inactive; negative
same,mutagenic call,"Test System: AMES SALMONELLA TYPHIMURIUM, Strain/Indicator: TA100, Metabolic Activation: RAT, LIVER, S-9, AROCLOR 1254 (30%), Method: PREINCUBATION",inactive; negative
same,mutagenic call,[7],inactive; negative
same,mutagenic call,"Test System: AMES SALMONELLA TYPHIMURIUM, Strain/Indicator: TA1535, Metabolic Activation: HAMSTER, LIVER, S-9, AROCLOR 1254 (30%), Method: PREINCUBATION",inactive; negative
same,mutagenic call,[8],inactive; negative
same,mutagenic call,[9],inactive; negative
same,mutagenic call,"Test System: AMES SALMONELLA TYPHIMURIUM, Strain/Indicator: TA1535, Metabolic Activation: RAT, LIVER, S-9, AROCLOR 1254 (30%), Method: PREINCUBATION",inactive; negative
same,mutagenic call,"Test System: AMES SALMONELLA TYPHIMURIUM, Strain/Indicator: TA1537, Metabolic Activation: HAMSTER, LIVER, S-9, AROCLOR 1254 (30%), Method: PREINCUBATION",inactive; negative
same,mutagenic call,[10],inactive; negative
same,mutagenic call,"Test System: AMES SALMONELLA TYPHIMURIUM, Strain/Indicator: TA1537, Metabolic Activation: RAT, LIVER, S-9, AROCLOR 1254 (30%), Method: PREINCUBATION",inactive; negative
CC1(c2ccccc2)C(=O)c2ccccc2N1[O] (configuration not stated),mutagenic call,[11],inactive; negative
same,mutagenic call,[12],inactive; negative
same,mutagenic call,"Test System: AMES SALMONELLA TYPHIMURIUM, Strain/Indicator: TA102, Metabolic Activation: NONE, Method: STANDARD PLATE",inactive; negative
Nc1ccc2c(c1)C(=O)c1ccc(N)cc1C2=O,mutagenic call,[11],inactive; negative
same,mutagenic call,[13],active; positive
same,mutagenic call,[12],inactive; negative
same,mutagenic call,[14],inactive; negative
same,mutagenic call,"Test System: AMES SALMONELLA TYPHIMURIUM, Strain/Indicator: TA1535, Metabolic Activation: NONE, Method: STANDARD PLATE",inactive; negative
same,mutagenic call,"Test System: AMES SALMONELLA TYPHIMURIUM, Strain/Indicator: TA1535, Metabolic Activation: RAT, LIVER, S-9, AROCLOR 1254, Method: STANDARD PLATE",inactive; negative
same,mutagenic call,"Test System: AMES SALMONELLA TYPHIMURIUM, Strain/Indicator: TA1537, Metabolic Activation: NONE, Method: STANDARD PLATE",inactive; negative
same,mutagenic call,"Test System: AMES SALMONELLA TYPHIMURIUM, Strain/Indicator: TA1537, Metabolic Activation: RAT, LIVER, S-9, AROCLOR 1254, Method: STANDARD PLATE",active; positive
same,mutagenic call,"Test System: AMES SALMONELLA TYPHIMURIUM, Strain/Indicator: TA1538, Metabolic Activation: NONE, Method: STANDARD PLATE",inactive; negative
same,mutagenic call,"Test System: AMES SALMONELLA TYPHIMURIUM, Strain/Indicator: TA1978, Metabolic Activation: RAT, LIVER, S-9, AROCLOR 1254, Method: STANDARD PLATE",inactive; negative
CCCCCCCCC/C=C/CC1CC(=O)OC1=O (configuration not stated),mutagenic call,[1],inactive; negative
same,mutagenic call,[2],inactive; negative
same,mutagenic call,[3],inactive; negative
same,mutagenic call,[4],inactive; negative
same,mutagenic call,[5],inactive; negative
same,mutagenic call,[6],inactive; negative
same,mutagenic call,[7],inactive; negative
same,mutagenic call,[8],inactive; negative
same,mutagenic call,[9],inactive; negative
same,mutagenic call,"Test System: AMES SALMONELLA TYPHIMURIUM, Strain/Indicator: TA1537, Metabolic Activation: HAMSTER, LIVER, S-9, AROCLOR 1254 (10%), Method: PREINCUBATION",inactive; negative
same,mutagenic call,[10],inactive; negative
same,mutagenic call,"Test System: AMES SALMONELLA TYPHIMURIUM, Strain/Indicator: TA1537, Metabolic Activation: RAT, LIVER, S-9, AROCLOR 1254 (10%), Method: PREINCUBATION",inactive; negative
O=[N+]([O-])c1ccc2c(c1)Cc1cc(O)ccc1-2,mutagenic call,[2],active; positive
same,mutagenic call,"Test System: AMES SALMONELLA TYPHIMURIUM, Strain/Indicator: TA98, Metabolic Activation: S-9, Method: PREINCUBATION",active; positive
O=[N+]([O-])c1ccc2ccc3cc4c(c5ccc1c2c35)C=CCC4,mutagenic call,"Test System: AMES SALMONELLA TYPHIMURIUM, Strain/Indicator: TA98(1,8-DNP6), Metabolic Activation: NONE, Method: STANDARD PLATE",active; positive
same,mutagenic call,"Test System: AMES SALMONELLA TYPHIMURIUM, Strain/Indicator: TA98(1,8-DNP6), Metabolic Activation: RAT, LIVER, S-9, AROCLOR 1254, Method: STANDARD PLATE",active; positive
same,mutagenic call,"Test System: AMES SALMONELLA TYPHIMURIUM, Strain/Indicator: TA98(NR), Metabolic Activation: NONE, Method: STANDARD PLATE",active; positive
same,mutagenic call,"Test System: AMES SALMONELLA TYPHIMURIUM, Strain/Indicator: TA98(NR), Metabolic Activation: RAT, LIVER, S-9, AROCLOR 1254, Method: STANDARD PLATE",active; positive
same,mutagenic call,[11],active; positive
same,mutagenic call,[13],active; positive
same,mutagenic call,[12],inactive; negative
same,mutagenic call,[14],active; positive
OCc1cc2ccc3cccnc3c2[nH]1,mutagenic call,[11],inactive; negative
same,mutagenic call,"Test System: E. COLI, Strain/Indicator: WP2 TM9, Metabolic Activation: NONE, Method: STANDARD PLATE",inactive; negative
C=C1C[C@@]23CC[C@H]4[C@@](C)(CCC[C@@]4(C)C(=O)O)[C@@H]2CC[C@]1(O[C@@H]1O[C@H](CO)[C@@H](O)[C@H](O)[C@H]1O[C@@H]1O[C@H](CO)[C@@H](O)[C@H](O)[C@H]1O)C3,mutagenic call,"Test System: AMES SALMONELLA TYPHIMURIUM, Strain/Indicator: TM677, Metabolic Activation: RAT, LIVER, S-9, AROCLOR 1254, Method: PREINCUBATION",inactive; negative
CCc1ccnc2ccccc12,mutagenic call,"Test System: AMES SALMONELLA TYPHIMURIUM, Strain/Indicator: TA100, Metabolic Activation: RAT, LIVER, S-9, Method: PREINCUBATION",inactive; negative

# — PubChem BioAssay AID1259407 (Chemical Carcinogenesis Research Information System (CCRIS), 2018)
